≈ marks a conversion by molar mass, not a printed value. Counter-ions that a name gives are not always drawn.
Legend:
Assay type in all cases: cell-based
S. aureus Smith = assay: MIC against S. aureus Smith; settings: Staphylococcus aureus
From the text: |MIC: μg/ml (inoculum size = 10^5 /ml) |S = S. aureus Smith

E. coli EC-14 = assay: MIC against E. coli EC-14; settings: Escherichia coli, EC14
From the text: |MIC: μg/ml (inoculum size = 10^5 /ml) |E = E. coli EC-14

Ps. aeruginosa SR-24 = assay: MIC against Ps. aeruginosa SR-24; settings: Pseudomonas aeruginosa, SR24
From the text: |MIC: μg/ml (inoculum size = 10^5 /ml) |P = Ps. aeruginosa SR-24

[1] = Table I, S = S. aureus Smith, inoculum size = 10^5 /ml
[2] = Table I, E = E. coli EC-14, inoculum size = 10^5 /ml
[3] = Table I, P = Ps. aeruginosa SR-24, inoculum size = 10^5 /ml
[4] = Table II, S (key, unit and inoculum given only in Table I)
[5] = Table II, E (key, unit and inoculum given only in Table I)
[6] = Table II, P (key, unit and inoculum given only in Table I)
[7] = Table III, S (key, unit and inoculum given only in Table I)
[8] = Table III, E (key, unit and inoculum given only in Table I)
[9] = Table III, P (key, unit and inoculum given only in Table I)

Row | SMILES | MIC (S. aureus Smith; [1]) [µg/mL] | MIC (E. coli EC-14; [2]) [µg/mL] | MIC (Ps. aeruginosa SR-24; [3]) [µg/mL] | MIC (S. aureus Smith; [4]) [µg/mL] | MIC (E. coli EC-14; [5]) [µg/mL] | MIC (Ps. aeruginosa SR-24; [6]) [µg/mL] | also measured
1 | CC(O)[C@H]1C(=O)N2C(C(=O)[O-])=C(C[n+]3ccc(N)cc3)[C@H](C)[C@H]12 (stereo partly drawn) [Table I No. 20] | 0.0125 (≈ 0.0394 µM) | 0.2 (≈ 0.63 µM) | 6.25 (≈ 19.7 µM) |  |  |  | 
2 | CC(O)[C@H]1C(=O)N2C(C(=O)[O-])=C(C[n+]3ccc(N)c(N)c3)[C@H](C)[C@H]12 (stereo partly drawn) [Table I No. 21] | 0.0125 (≈ 0.0376 µM) | 0.2 (≈ 0.602 µM) | 3.13 (≈ 9.42 µM) |  |  |  | 
3 | CC(O)[C@H]1C(=O)N2C(C(=O)[O-])=C(C[n+]3ccc(N(C)C)cc3)[C@H](C)[C@H]12 (stereo partly drawn) [Table I No. 22] | 0.0125 (≈ 0.0362 µM) | 0.1 (≈ 0.29 µM) | 3.13 (≈ 9.06 µM) |  |  |  | 
4 | CC(O)[C@H]1C(=O)N2C(C(=O)[O-])=C(C[n+]3cccc(O)c3)[C@H](C)[C@H]12 (stereo partly drawn) [Table I No. 23] | 0.05 (≈ 0.157 µM) | 0.2 (≈ 0.628 µM) | 12.5 (≈ 39.3 µM) |  |  |  | 
5 | COc1ccc[n+](CC2=C(C(=O)[O-])N3C(=O)[C@H](C(C)O)[C@H]3[C@H]2C)c1 (stereo partly drawn) [Table I No. 24] | 0.025 (≈ 0.0752 µM) | 0.39 (≈ 1.17 µM) | 3.13 (≈ 9.42 µM) |  |  |  | 
6 | COc1cc[n+](CC2=C(C(=O)[O-])N3C(=O)[C@H](C(C)O)[C@H]3[C@H]2C)cc1 (stereo partly drawn) [Table I No. 25] | 0.025 (≈ 0.0752 µM) | 0.39 (≈ 1.17 µM) | 3.13 (≈ 9.42 µM) |  |  |  | 
7 | CSc1ccc[n+](CC2=C(C(=O)[O-])N3C(=O)[C@H](C(C)O)[C@H]3[C@H]2C)c1 (stereo partly drawn) [Table I No. 26] | 0.0125 (≈ 0.0359 µM) | 0.39 (≈ 1.12 µM) | 3.13 (≈ 8.98 µM) |  |  |  | 
8 | CSc1cc[n+](CC2=C(C(=O)[O-])N3C(=O)[C@H](C(C)O)[C@H]3[C@H]2C)cc1 (stereo partly drawn) [Table I No. 27] | 0.025 (≈ 0.0718 µM) | 0.2 (≈ 0.574 µM) | 3.13 (≈ 8.98 µM) |  |  |  | 
9 | CC(O)[C@H]1C(=O)N2C(C(=O)[O-])=C(C[n+]3cccc(F)c3)[C@H](C)[C@H]12 (stereo partly drawn) [Table I No. 28] | 0.025 (≈ 0.078 µM) | 0.39 (≈ 1.22 µM) | 3.13 (≈ 9.77 µM) |  |  |  | 
10 | CC(O)[C@H]1C(=O)N2C(C(=O)[O-])=C(C[N+]3(C)CCCC3)[C@H](C)[C@H]12 (stereo partly drawn) [Table II No. 1] |  |  |  | 0.025 (≈ 0.0811 µM) | 0.1 (≈ 0.324 µM) | 3.13 (≈ 10.1 µM) | 
11 | CC(O)[C@H]1C(=O)N2C(C(=O)[O-])=C(C[N+]3(CC(N)=O)CCCC3)[C@H](C)[C@H]12 (stereo partly drawn) [Table II No. 2] |  |  |  | 0.1 (≈ 0.285 µM) | 0.2 (≈ 0.569 µM) | 12.5 (≈ 35.6 µM) | 
12 | CC(O)[C@H]1C(=O)N2C(C(=O)[O-])=C(C[N+]3(CC(=O)O)CCCC3)[C@H](C)[C@H]12 (stereo partly drawn) [Table II No. 3] |  |  |  | 0.39 (≈ 1.11 µM) | 0.39 (≈ 1.11 µM) | 50 (≈ 142 µM) | 
13 | CC(O)[C@H]1C(=O)N2C(C(=O)[O-])=C(C[N+]3(C)CCCCC3)[C@H](C)[C@H]12 (stereo partly drawn) [Table II No. 4, 1β-methyl-2-(1-methylpiperidinio-1-yl)methyl-6α-(1-hydroxyethyl)-1-carba-2-penem-4-carboxylate] |  |  |  | 0.025 (≈ 0.0775 µM) | 0.1 (≈ 0.31 µM) | 3.13 (≈ 9.71 µM) | 
14 | CC(O)[C@H]1C(=O)N2C(C(=O)[O-])=C(C[N+]34CCC(CC3)CC4)[C@H](C)[C@H]12 (stereo partly drawn) [Table II No. 5, 1β-methyl-2-(quinuclidinio-1-yl)-methyl-6α-(1-hydroxyethyl)-1-carba-2-penem-4-carboxylate] |  |  |  | 0.025 (≈ 0.0748 µM) | 0.2 (≈ 0.598 µM) | 6.25 (≈ 18.7 µM) | 
15 | CC(O)[C@H]1C(=O)N2C(C(=O)[O-])=C(C[N+]34CCN(CC3)CC4)[C@H](C)[C@H]12 (stereo partly drawn) [Table II No. 6] |  |  |  | 0.1 (≈ 0.298 µM) | 0.39 (≈ 1.16 µM) | 6.25 (≈ 18.6 µM) | 
16 | CC(O)[C@H]1C(=O)N2C(C(=O)[O-])=C(CN[n+]3ccccc3)[C@H](C)[C@H]12 (stereo partly drawn) [Table III No. 1] |  |  |  |  |  |  | MIC (S. aureus Smith; [7]): 0.025 µg/mL (≈ 0.0788 µM); MIC (E. coli EC-14; [8]): 0.39 µg/mL (≈ 1.23 µM); MIC (Ps. aeruginosa SR-24; [9]): 12.5 µg/mL (≈ 39.4 µM)
17 | CC(O)[C@H]1C(=O)N2C(C(=O)O)=C(CN3CCCC3)[C@H](C)[C@H]12 (stereo partly drawn) [Table III No. 2] |  |  |  |  |  |  | MIC (S. aureus Smith; [7]): 0.0125 µg/mL (≈ 0.0425 µM); MIC (E. coli EC-14; [8]): 0.39 µg/mL (≈ 1.32 µM); MIC (Ps. aeruginosa SR-24; [9]): 12.5 µg/mL (≈ 42.5 µM)
18 | CC(O)[C@H]1C(=O)N2C(C(=O)O)=C(CN3CCC(N)C3)[C@H](C)[C@H]12 (stereo partly drawn) [Table III No. 3] |  |  |  |  |  |  | MIC (S. aureus Smith; [7]): 0.05 µg/mL (≈ 0.162 µM); MIC (E. coli EC-14; [8]): 0.78 µg/mL (≈ 2.52 µM); MIC (Ps. aeruginosa SR-24; [9]): 3.13 µg/mL (≈ 10.1 µM)
19 | CC(O)[C@H]1C(=O)N2C(C(=O)O)=C(CN3CCCCC3)[C@H](C)[C@H]12 (stereo partly drawn) [Table III No. 4, 1β-methyl-2-(piperidin-1-yl)methyl-6α-(1-hydroxyethyl)-1-carba-2-penem-4-carboxylic acid sodium salt] |  |  |  |  |  |  | MIC (S. aureus Smith; [7]): 0.0125 µg/mL; MIC (E. coli EC-14; [8]): 1.56 µg/mL; MIC (Ps. aeruginosa SR-24; [9]): 50 µg/mL

From patent US5064954A, “Process for producing halomethylcarbapenems” (Shionogi & Co., Ltd., priority 1990, dated 1991)
